Read-outs that look alike come from different tables or passages of the source.
Tested on: pancreatic cancer cell lines (e.g. MIA PaCa-2)
Assay: Cell based assay, cell viability (CellTiter-Glo), pancreatic cancer cell lines
Conditions: Homo sapiens
Procedure, shortened: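 Cells were trypsinized, seeded, and left 24 h before compound was added at 0 to 2 μM final. After a further 72 h of culture, viability was read by ATP-based luminescence.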

[1] = pancreatic cancer cell line AsPC-1, 72 hours, read-out: IC50, AsPC-1
[2] = pancreatic cancer cell line BxPC-3, 72 hours, read-out: IC50, BxPC-3
[3] = pancreatic cancer cell line CFPAC-1, 72 hours, read-out: IC50, CFPAC-1
[4] = pancreatic cancer cell line Capan-1, 72 hours, read-out: IC50, Capan-1
[5] = pancreatic cancer cell line Capan-2, 72 hours, read-out: IC50, Capan-2
[6] = pancreatic cancer cell line MIA PaCa-2, 72 hours, read-out: IC50, MIA PaCa-2
[7] = pancreatic cancer cell line PANC-1, 72 hours, read-out: IC50, PANC-1

SMILES: CC(=O)c1c([S+]([O-])Cc2ccc(C#N)s2)[nH]c2c(Br)ccc(Cl)c2c1=O (centres unmarked) [Compound 98, 5-(((3-acetyl-8-bromo-5-chloro-4-oxo-1,4-dihydroquinolin-2-yl)sulfinyl)methyl)thiophene-2-carbonitrile]
- IC50 [1]: > 2000 nM
- IC50 [2]: > 2000 nM
- IC50 [3]: > 10000 nM
- IC50 [4]: > 2000 nM
- IC50 [5]: > 2000 nM
- IC50 [6]: 1270 nM
- IC50 [7]: > 2000 nM

SMILES: CSc1[nH]c2c(Br)ccc(Cl)c2c(=O)c1C(C)=O [Compound 2, 3-acetyl-8-bromo-5-chloro-2-(methylthio)quinolin-4(1H)-one]
- IC50 [1]: > 2000 nM
- IC50 [2]: > 2000 nM
- IC50 [3]: > 10000 nM
- IC50 [4]: > 2000 nM
- IC50 [5]: > 2000 nM
- IC50 [6]: > 2000 nM
- IC50 [7]: > 2000 nM

SMILES: CC(=O)c1c([S+]([O-])Cc2cccc(I)c2)[nH]c2c(Br)ccc(Cl)c2c1=O (centres unmarked) [Compound 48, 3-acetyl-8-bromo-5-chloro-2-((3-iodobenzyl)sulfinyl)quinolin-4(1H)-one]
- IC50 [1]: > 2000 nM
- IC50 [2]: > 2000 nM
- IC50 [3]: > 10000 nM
- IC50 [4]: > 2000 nM
- IC50 [5]: > 2000 nM
- IC50 [6]: > 2000 nM
- IC50 [7]: > 2000 nM

SMILES: CC(=O)c1c([S+](C)[O-])[nH]c2c(Cl)ccc(Cl)c2c1=O (centres unmarked) [Compound 6, 3-acetyl-5,8-dichloro-2-(methylsulfinyl)quinolin-4(1H)-one]
- IC50 [1]: > 2000 nM
- IC50 [2]: > 2000 nM
- IC50 [3]: > 10000 nM
- IC50 [4]: > 2000 nM
- IC50 [5]: > 2000 nM
- IC50 [6]: 1350 nM
- IC50 [7]: > 2000 nM

SMILES: CC(=O)c1c([S+]([O-])Cc2ccc(-n3cccn3)nc2)[nH]c2c(Br)ccc(Cl)c2c1=O (centres unmarked) [Compound 99, 2-(((6-(1H-pyrazol-1-yl)pyridin-3-yl)methyl)sulfinyl)-3-acetyl-8-bromo-5-chloroquinolin-4(1H)-one]
- IC50 [1]: 1490 nM
- IC50 [2]: > 2000 nM
- IC50 [3]: > 10000 nM
- IC50 [4]: 1990 nM
- IC50 [5]: > 2000 nM
- IC50 [6]: 720 nM
- IC50 [7]: > 2000 nM
